Results reported in US8580762B2, “Substituted purine and 7-deazapurine compounds” (Epizyme, Inc., priority 2010, dated 2013).
Where two headings read alike, the source gives them in different places.

Key:
Jurkat = test: In vitro anti-proliferative assay, Jurkat; type: cell-based, human; conditions: non-MLL-rearranged, up to 14 days
Experimental: (§1) In Vitro Anti-Proliferative Assay. The potency and selectivity of the anti-proliferative activity of the compounds of the present invention were assessed using a panel of MLL-rearranged and non-MLL-rearranged human leukemia cell lines. The MLL-rearranged panel included cell lines derived from ALL, AML and biphenotypic leukemias harboring MLL-AF4, MLL-AF9 or MLL-ENL fusions. These cell lines recruit DOT1L. […] Exponentially growing cells were plated, in triplicate, in 96-well plates at a density of 3×10^4 cells/well in a final volume of 150 μl. […] Anti-proliferative activity was determined by cell viability measurements every 3-4 days for up to 14 days.

[1] = Plasma levels of Compound 2 in the xenograft study; type: in vivo, female nude mice; conditions: female, nude, mouse; for concentration at 21 day: subcutaneous, read-out: average plasma level from the last sampling on day 21
Experimental: (§2) Four groups of 20 (Groups 1, 3, 4 and 5), and one group of 8 (Group 2) female nude mice (average weight of 0.023 kg) bearing MV4-11 xenograft tumors of sizes ranging from 80-120 mm^3 were implanted subcutaneously with minipumps (Alzet Model 2001). Group 1 received vehicle only from the pump. Group 2 received vehicle only from the pump plus ip injections tid (8 hours apart) of vehicle. […] Pumps were designed to last for 7 days and were exchanged twice to give total infusion duration of 21 days exposure. […] Tumor size was measured every 4 days. After 21 days the study was terminated, and mean TGI calculated.

MV4-11 xenograft tumors = test: In vivo anti-proliferative assay, mouse xenograft model of MLL-rearranged leukemia; set-up: species or system female nude mice; conditions: 21 days; for TGI compared to controls: non-statistically significant
Experimental: as §2, with “In Vivo Anti-Proliferative Assay. The in vivo anti-tumor activity of the compounds of the present invention were assessed in a mouse xenograft model of MLL-rearranged leukemia. Four” for “Four”

[2] = test system: EOL-1 cells which express an MLL-PTD; test: In vitro anti-proliferative assay, EOL-1; type: cell-based; conditions: Homo sapiens, EOL1, 336 h; EOL-1, MLL-PTD; up to 14 days
Experimental: as §1

HL-60 = test: In vitro anti-proliferative assay, HL-60; type: cell-based, human; conditions: HL-60, non-MLL-rearranged; up to 14 days
Experimental: as §1

DOT1L(1-416) = DOT1L(1-416) (Homo sapiens, UniProt Q8TEK3); test: Determination of IC50: DOT1L(1-416) methyltransferase assay, 3H-SAM, oligonucleosome substrate, Flashplate; type: biochemical; conditions: read-out: DOT1L IC50
Sequence of DOT1L(1-416) (Q8TEK3 1-416): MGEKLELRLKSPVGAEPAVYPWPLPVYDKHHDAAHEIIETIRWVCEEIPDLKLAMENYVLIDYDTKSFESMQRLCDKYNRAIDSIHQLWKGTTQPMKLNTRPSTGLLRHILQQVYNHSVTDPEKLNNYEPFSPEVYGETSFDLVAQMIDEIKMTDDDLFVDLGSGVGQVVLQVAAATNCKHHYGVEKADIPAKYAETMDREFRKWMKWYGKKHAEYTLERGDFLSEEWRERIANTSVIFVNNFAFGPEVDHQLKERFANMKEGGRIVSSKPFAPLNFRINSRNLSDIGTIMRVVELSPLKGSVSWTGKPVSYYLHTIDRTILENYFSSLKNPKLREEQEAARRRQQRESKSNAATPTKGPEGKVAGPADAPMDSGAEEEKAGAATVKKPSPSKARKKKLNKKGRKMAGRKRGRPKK
In short: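 Compounds in 10-point 3-fold DMSO dilutions were tested in reactions started with substrate mix of 200 nM [3H]-SAM, 600 nM unlabeled SAM and 20 nM oligonucleosome. Reactions ran 120 min at room temperature and were quenched with 100 μM SAM. Labeled substrate was captured on streptavidin Flashplates and counted by scintillation to give IC50.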

SMILES | IC50 (DOT1L(1-416); class symbols) | further results
CC(C)N(C[C@H]1O[C@@H](n2cnc3c(N)ncnc32)[C@H](O)[C@@H]1O)[C@H]1C[C@@H](CCc2nc3cc(C(C)(C)C)ccc3[nH]2)C1 [Compound 2, (2R,3R,4S,5R)-2-(6-amino-9H-purin-9-yl)-5-((((1r,3S)-3-(2-(5-(tert-butyl)-1H-benzo[d]imidazol-2-yl)ethyl)cyclobutyl)(isopropyl)amino)methyl)tetrahydrofuran-3,4-diol] | – | anti-proliferative activity (Jurkat): no activity; Cmax ([1]; Group 3, ip 20 mg/kg tid plus 112 mg/kg/day minipump, read-out: Cmax after each of the tid ip injections): 4200 to 5000 ng/mL; concentration at 21 day ([1]; Group 4, 112 mg/kg/day minipump): 99 ng/mL; concentration at 21 day ([1]; Group 5, 56 mg/kg/day minipump): 52 ng/mL; TGI compared to controls (MV4-11 xenograft tumors; 56 mg/kg/day minipump (Group 5)): 43%; TGI compared to controls (MV4-11 xenograft tumors; 112 mg/kg/day minipump (Group 4)): 38%; TGI compared to the controls (MV4-11 xenograft tumors; Group 3: 112 mg/kg/day minipump plus ip 20 mg/kg tid, total 172 mg/kg/day, statistically significant): > 70%; IC50 [2]: 11 nM; anti-proliferative activity (HL-60): no activity
CN(C[C@H]1O[C@@H](n2ccc3c(N)ncnc32)[C@H](O)[C@@H]1O)[C@H]1C[C@@H](CCc2nc3cc(C(C)(C)C)ccc3[nH]2)C1 [Compound 86, (2R,3R,4S,5R)-2-(4-amino-7H-pyrrolo[2,3-d]pyrimidin-7-yl)-5-((((1r,3S)-3-(2-(5-(tert-butyl)-1H-benzo[d]imidazol-2-yl)ethyl)cyclobutyl) (methyl)amino)methyl) tetrahydrofuran-3,4-diol] | < 100 nM | IC50 (DOT1L(1-416)): 0.62 nM
CC(C)(C)c1ccc2[nH]c(CC[C@H]3C[C@@H](N(C[C@H]4O[C@@H](n5ccc6c(N)ncnc65)[C@H](O)[C@@H]4O)CC(F)(F)F)C3)nc2c1 [Compound 78, (2R,3R,4S,5R)-2-(4-amino-7H-pyrrolo[2,3-d]pyrimidin-7-yl)-5-((((1r,3S)-3-(2-(5-(tert-butyl)-1H-benzo[d]imidazol-2-yl)ethyl)cyclobutyl)(2,2,2-trifluoroethyl)amino)methyl)tetrahydrofuran-3,4-diol] | 1000 to 10000 nM | –
CC(C)(C)c1ccc2[nH]c(CCC3CC(N(C[C@H]4C[C@@H](n5ccc6c(N)ncnc65)[C@H](O)[C@@H]4O)CC(F)(F)F)C3)nc2c1 (stereo partly drawn) [Compound 66, (1R,2S,3R,5R)-3-(4-amino-7H-pyrrolo[2,3-d]pyrimidin-7-yl)-5-(((3-(2-(5-(tert-butyl)-1H-benzo[d]imidazol-2-yl)ethyl)cyclobutyl) (2,2,2-trifluoroethyl)amino)methyl)cyclopentane-1,2-diol] | 100 to 1000 nM | –
CN(C[C@H]1O[C@@H](n2ccc3c(N)ncnc32)[C@H](O)[C@@H]1O)[C@H]1C[C@@H](CCc2nc3cc(OC(F)(F)F)ccc3[nH]2)C1 [Compound 94, (2R,3R,4S,5R)-2-(4-amino-7H-pyrrolo[2,3-d]pyrimidin-7-yl)-5-((methyl((1r,3S)-3-(2-(5-(trifluoromethoxy)-1H-benzo[d]imidazol-2-yl)ethyl)cyclobutyl)amino)methyl) tetrahydrofuran-3,4-diol] | < 100 nM | –
CN(C[C@H]1C[C@@H](n2ccc3c(N)ncnc32)[C@H](O)[C@@H]1O)C1CC(CCc2nc3cc(C(F)(F)F)ccc3[nH]2)C1 (stereo partly drawn) [Compound 13, (1R,2S,3R,5R)-3-(4-amino-7H-pyrrolo[2,3-d]pyrimidin-7-yl)-5-((methyl(3-(2-(5-(trifluoromethyl)-1H-benzo[d]imidazol-2-yl)ethyl)cyclobutyl)amino)methyl)cyclopentane-1,2-diol] | < 100 nM | –
CC(C)N(CC1CC(Cc2nc3cc(C(F)(F)F)c(Cl)cc3[nH]2)C1)C[C@H]1C[C@@H](n2ccc3c(N)ncnc32)[C@H](O)[C@@H]1O (stereo partly drawn) [Compound 21, (1R,2S,3R,5R)-3-{4-amino-7H-pyrrolo[2,3-d]pyrimidin-7-yl}-5-({[(3-{[6-chloro-5-(trifluoromethyl)-1H-1,3-benzodiazol-2-yl]methyl}cyclobutyl)methyl](propan-2-yl)amino}methyl)cyclopentane-1,2-diol] | 1000 to 10000 nM | –
CN(C[C@H]1C[C@@H](n2ccc3c(N)ncnc32)[C@H](O)[C@@H]1O)[C@H]1C[C@H](CCc2nc3cc(C(F)(F)F)ccc3[nH]2)C1 [Compound 11, (1R,2S,3R,5R)-3-(4-amino-7H-pyrrolo[2,3-d]pyrimidin-7-yl)-5-((methyl((1s,3R)-3-(2-(5-(trifluoromethyl)-1H-benzo[d]imidazol-2-yl)ethyl)cyclobutyl)amino)methyl)cyclopentane-1,2-diol] | < 100 nM | –

Second part, led by results:

IC50 (DOT1L(1-416); class symbols) | SMILES | further results
< 100 nM | CC(C)(C)c1ccc2[nH]c(CC[C@H]3C[C@H](N(CC4CCC4)C[C@H]4C[C@@H](n5ccc6c(N)ncnc65)[C@H](O)[C@@H]4O)C3)nc2c1 [Compound 59, (1R,2S,3R,5R)-3-(4-amino-7H-pyrrolo[2,3-d]pyrimidin-7-yl)-5-((((1s,3R)-3-(2-(5-(tert-butyl)-1H-benzo[d]imidazol-2-yl)ethyl)cyclobutyl)(cyclobutylmethyl)amino)methyl)cyclopentane-1,2-diol] | –
< 100 nM | CN(C[C@H]1O[C@@H](n2cnc3c(N)ncnc32)[C@H](O)[C@@H]1O)C1CC(CNC(=O)Nc2ccc(C(C)(C)C)cc2)C1 (stereo partly drawn) [Compound 110, 1-((3-((((2R,3S,4R,5R)-5-(6-amino-9H-purin-9-yl)-3,4-dihydroxytetrahydrofuran-2-yl)methyl)(methyl)amino)cyclobutyl)methyl)-3-(4-(tert-butyl)phenyl)urea] | –
< 100 nM | CC(C)N(C[C@H]1C[C@@H](n2ccc3c(N)ncnc32)[C@H](O)[C@@H]1O)C1CC(CCc2nc3cc(C(C)(C)C)ccc3[nH]2)C1 (stereo partly drawn) [Compound 19, (1R,2S,3R,5R)-3-(4-amino-7H-pyrrolo[2,3-d]pyrimidin-7-yl)-5-(((3-(2-(5-(tert-butyl)-1H-benzo[d]imidazol-2-yl)ethyl)cyclobutyl)(isopropyl)amino)methyl)cyclopentane-1,2-diol] | –
< 100 nM | CCN(C[C@H]1O[C@@H](n2ccc3c(N)ncnc32)[C@H](O)[C@@H]1O)[C@H]1C[C@@H](CCc2nc3cc(C(C)(C)C)ccc3[nH]2)C1 [Compound 89, (2R,3R,4S,5R)-2-(4-amino-7H-pyrrolo[2,3-d]pyrimidin-7-yl)-5-((((1r,3S)-3-(2-(5-(tert-butyl)-1H-benzo[d]imidazol-2-yl)ethyl)cyclobutyl) (ethyl)amino)methyl) tetrahydrofuran-3,4-diol] | –
< 100 nM | CC(C)N(C[C@H]1C[C@@H](n2ccc3c(N)ncnc32)[C@H](O)[C@@H]1O)[C@H]1C[C@@H](CCc2nc3cc(OC(F)(F)F)ccc3[nH]2)C1 [Compound 60, (1R,2S,3R,5R)-3-(4-amino-7H-pyrrolo[2,3-d]pyrimidin-7-yl)-5-((isopropyl((1r,3S)-3-(2-(5-(trifluoromethoxy)-1H-benzo[d]imidazol-2-yl)ethyl)cyclobutyl)amino)methyl)cyclopentane-1,2-diol] | –
< 100 nM | COCC(C)(C)c1ccc2[nH]c(CCC3CC(N(C)C[C@H]4O[C@@H](n5cnc6c(N)ncnc65)[C@H](O)[C@@H]4O)C3)nc2c1 (stereo partly drawn) [Compound 140, (2R,3R,4S,5R)-2-(6-amino-9H-purin-9-yl)-5-(((3-(2-(5-(1-methoxy-2-methylpropan-2-yl)-1H-benzo[d]imidazol-2-yl)ethyl)cyclobutyl) (methyl)amino)methyl) tetrahydrofuran-3,4-diol] | –
< 100 nM | CC(C)(C)c1ccc2[nH]c(CC[C@H]3C[C@H](N(C[C@H]4C[C@@H](n5ccc6c(N)ncnc65)[C@H](O)[C@@H]4O)C4CCC4)C3)nc2c1 [Compound 51, (1R,2S,3R,5R)-3-(4-amino-7H-pyrrolo[2,3-d]pyrimidin-7-yl)-5-((((1s,3R)-3-(2-(5-(tert-butyl)-1H-benzo[d]imidazol-2-yl)ethyl)cyclobutyl)(cyclobutyl)amino)methyl)cyclopentane-1,2-diol] | –
< 100 nM | CC(C)N(C[C@H]1C[C@@H](n2ccc3c(N)ncnc32)[C@H](O)[C@@H]1O)C1CC(CCc2nc3cc(OC(F)(F)F)ccc3[nH]2)C1 (stereo partly drawn) [Compound 56, (1R,2S,3R,5R)-3-(4-amino-7H-pyrrolo[2,3-d]pyrimidin-7-yl)-5-((isopropyl(3-(2-(5-(trifluoromethoxy)-1H-benzo[d]imidazol-2-yl)ethyl)cyclobutyl)amino)methyl)cyclopentane-1,2-diol] | –
